Blank lines part the entries; values can stand above or below the compound they belong to.
Experiments:
Tetranychus urticae = assay: Tetranychus test, OP-resistant (TETRUR spray treatment), bean leaf discs; format: in vivo; conditions: for efficacy in %: application rate 500 g/ha, after 6 days
Protocol: Tetranychus Test, OP-Resistant (TETRUR Spray Treatment)
After a time of 6 days, the efficacy in % is determined.

[1] = log P by HPLC, EEC Directive 79/831 Annex V.A8, method a); format: physicochemical
Protocol: (§1) ^a) Note regarding the determination of the log P values and mass detection The determination of the given log P values was carried out in accordance with EEC Directive 79/831 Annex V.A8 by HPLC (High Performance Liquid Chromatography) on a reversed-phase column (C18). Agilent 1100 LC system; 50*4.6 Zorbax Eclipse Plus C18 1.8 micron; mobile phase A: acetonitrile (0.1% formic acid); mobile phase B: water (0.09% formic acid); linear gradient from 10% acetonitrile to 95% acetonitrile in 4.25 min, then 95% acetonitrile for a further 1.25 min; oven temperature 55° C.; flow rate: 2.0 ml/min Mass detection is via an Agilend MSD system.
as §1, with “mass detection:” for “mass detection”, “2.0 ml/min.” for “2.0 ml/min”

Phaedon cochleariae [2] = assay: Phaedon test (PHAECO spray treatment), Chinese cabbage leaf discs; conditions: for efficacy in %: application rate 500 g/ha, after 7 days
Spodoptera frugiperda = Spodoptera frugiperda test (SPODFR spray treatment), maize leaf discs; format: in vivo; conditions: application rate 500 g/ha; after 7 days
Source text: Spodoptera frugiperda Test (SPODFR Spray Treatment)

Myzus persicae = assay: Myzus test (MYZUPE spray treatment); format: in vivo; conditions: for efficacy in %: application rate 500 g/ha, after 6 days; for inhibition at 100 g/ha / inhibition at 20 g/ha: Myzus persicae, 144 h
Protocol: Myzus test (Myzupe spray treatment)
After 6 days, the efficacy in % is determined.
Myzus Test (MYZUPE Spray Treatment)

Ctenocephalides felis = Ctenocephalides felis oral (CTECFE); format: in vivo
Protocol: Ctenocephalides felis Oral (CTECFE)
Solvent: 1 part by weight of dimethyl sulphoxide
For the purpose of producing a suitable preparation of active compound, 10 mg of active compound are mixed with 0.5 ml of dimethyl sulphoxide. A portion of the concentrate is diluted with citrated cattle blood, and the desired concentration is prepared.
(§2) About 20 unfed adult fleas (Ctenocephalides felis) are placed into a chamber which is closed at the top and bottom with gauze. A metal cylinder whose bottom end is closed with parafilm is placed onto the chamber. The cylinder contains the blood/active compound preparation, which can be taken up by the fleas through the parafilm membrane. After 2 days, the kill in % is determined.
For the purpose of preparing an appropriate active compound formulation, 10 mg of active compound are mixed with 0.5 ml of dimethyl sulphoxide. A portion of the concentrate is diluted with citrated cattle blood, and the desired concentration is prepared.
as §2, with “membrane.” for “membrane. After 2 days, the kill in % is determined.”

Boophilus microplus = Boophilus microplus test (BOOPMI injection); format: in vivo; conditions: for % Activity dat: BOOPMI injection, 7 dat
Protocol: Boophilus microplus Test (BOOPMI Injection)
(§3) Solvent: dimethyl sulphoxide
The active compound solution is injected into the abdomen (Boophilus microplus), and the animals are transferred into dishes and stored in a climate-controlled room. The activity is assessed by laying of fertile eggs.
The active compound solution is injected into the abdomen (Boophilus microplus), and the animals are transferred into dishes and stored in a climate-controlled room.
The activity is assessed by laying of fertile eggs. 100% means that none of the ticks has laid any fertile eggs.

Phaedon cochleariae [3] = assay: Phaedon cochleariae spray test (PHAECO), cabbage leaves, ppm; format: in vivo; conditions: 168 h, 7 dat
Source text: Phaedon cochleariae Spray Test (PHAECO)
Solvent: 7 parts by weight of dimethylformamide
Emulsifier: 2 parts by weight of alkylaryl polyglycol ether
(§4) If the addition of ammonium salts or/and penetrants is required, these are in each case added in a concentration of 1000 ppm to the solution of the preparation.

Nilaparvata lugens = Nilaparvata lugens spray test (NILALU); format: in vivo
Source text: Nilaparvata lugens Spray Test (NILALU)
as §4

[4] = tested on: Boophilus microplus females of the SP-resistant Parkhurst strain; assay: Boophilus microplus test (DIP); format: in vivo; conditions: Rhipicephalus microplus, 168 h, BOOPMI DIP, 7 dat
Protocol: Boophilus microplus Test (DIP)
Test animals: adult engorged Boophilus microplus females of the SP-resistant Parkhurst strain
as §3
10 mg of active compound are dissolved in 0.5 ml of dimethyl sulphoxide. For the purpose of preparing a suitable formulation, the active compound solution is diluted with water to the concentration desired in each case.
This active compound preparation is pipetted into tubes. 8-10 ticks are transferred into a further tube with holes. The tube is immersed into the active compound formulation, and all ticks are completely wetted. After the liquid has rum off, the ticks are transferred to filter discs in plastic dishes and kept in a climatized room. The activity is assessed after 7 days by laying of fertile eggs. Eggs whose fertility is not outwardly visible are stored in glass tubes in a climate-controlled cabinet until the larvae hatch. An efficacy of 100% means that none of the ticks has laid any fertile eggs.
10 mg of active compound are dissolved in 0.5 ml of dimethyl sulphoxide. For the purpose of preparing a suitable formulation, the active compound solution is diluted with water to the concentration desired in each case (in ppm).
This active compound preparation is pipetted into tubes. 8-10 ticks are transferred into a further tube with holes. The tube is immersed into the active compound formulation, and all ticks are completely wetted. After the liquid has run out, the ticks are transferred onto filter discs in plastic dishes and stored in a climate-controlled room.
The activity is assessed after the desired time by laying of fertile eggs. Eggs whose fertility is not evident from the outside are kept in glass tubes in a climate-controlled cabinet until the larvae have hatched. An effect of 100% means that none of the ticks has laid any fertile eggs.

[5] = reversed-phase C18 HPLC column; HPLC-MS method a), reversed-phase C18, acetonitrile/water with formic acid
[6] = cell marked a): HPLC, reversed-phase C18, acetonitrile/water with formic acid, gradient 10% to 95% acetonitrile
[7] = Tetranychus urticae, foliar, 144 h, TETRUR, 6 dat
[8] = cell prints no method mark; Ex. 40 value equals the log P given under method a)

chromatographic logP [1, 5]: 2.5
SMILES: Cn1nc(C2(F)CC2)c(Br)c1C(=O)Nc1ccc(Cl)c(C(=O)NC2(C#N)CC2)c1 [Example 1, 4-Bromo-N-{4-chloro-3-[(1-cyanocyclopropyl)carbamoyl]phenyl}-3-(1-fluorocyclopropyl)-1-methyl-1H-pyrazole-5-carboxamide]
efficacy in % (Tetranychus urticae): 100% | efficacy in % (Phaedon cochleariae [2]): 100%

chromatographic logP [1, 5]: 2.81
SMILES: CN(C(=O)c1c(C(F)(F)F)c(C(F)(F)F)nn1C)c1ccc(Cl)c(C(=O)NC2(C#N)CC2)c1 [Example 2, N-{4-Chloro-3-[(1-cyanocyclopropyl)carbamoyl]phenyl}-N,1-dimethyl-3,4-bis(trifluoromethyl)-1H-pyrazole-5-carboxamide]
efficacy in % (Spodoptera frugiperda): 100% | efficacy in % (Myzus persicae): 100% | efficacy in % (Tetranychus urticae): 100% | kill in % (effect) (Ctenocephalides felis; 100 ppm, after 2 days): 100% | efficacy in % (laying of fertile eggs) (Boophilus microplus; 20 μg/animal, after 7 days): 100% | efficacy in % (Phaedon cochleariae [2]): 100%

SMILES: CN(C(=O)c1c(Cl)c(C2(Cl)CC2)nn1C)c1ccc(Cl)c(C(=O)NC2(C#N)CC2)c1 [Example 3]
efficacy in % (Tetranychus urticae): 100% | logP [1, 6]: 2.46 ^a) | efficacy in % (Phaedon cochleariae [2]): 100%

SMILES: CCN(C(=O)c1cc(N(C)C(=O)c2c(C(F)(F)F)c(C(F)(F)C(F)(F)F)nn2C)ccc1Cl)C1(C#N)CC1 [Example 4]
efficacy in % (Spodoptera frugiperda): 100% | efficacy in % (Myzus persicae): 100% | efficacy in % (Tetranychus urticae): 100% | logP [1, 6]: 3.77 ^a) | efficacy in % (Phaedon cochleariae [2]): 100%

SMILES: CN(C(=O)c1c(C(F)(F)F)c(C(F)(F)C(F)(F)F)nn1C)c1ccc(Cl)c(C(=O)N(C)C2(C#N)CC2)c1 [Example 5]
efficacy in % (Spodoptera frugiperda): 100% | efficacy in % (Myzus persicae): 90% | efficacy in % (Tetranychus urticae): 100% | logP [1, 6]: 3.59 ^a) | efficacy in % (Phaedon cochleariae [2]): 100%

SMILES: Cn1nc(C(F)(F)C(F)(F)F)c(C(F)(F)F)c1C(=O)Nc1ccc(Br)c(C(=O)NC2(C#N)CC2)c1 [Example 14]
% Activity dat (Myzus persicae; MYZUPE, 100 g/ha, 6 dat): 100 6 dat 100 6 dat % | inhibition at 100 g/ha (Myzus persicae; MYZUPE, 100 g/ha, 6 dat): 100% | inhibition at 100 g/ha (Tetranychus urticae; [7]): 100% | inhibition at 4 ppm (Phaedon cochleariae [3]): 100% | inhibition at 500 g/ha (Nilaparvata lugens; 96 h, 4 dat): 80% | chromatographic logP ([1]; reversed-phase HPLC column (C18); cell prints no method mark; Ex. 40 value equals the log P given under method a)): 3.31

SMILES: C#CCn1nc(C(F)(F)C(F)(F)F)c(C(F)(F)F)c1C(=O)Nc1ccc(Cl)c(C(=O)NC2(C#N)CC2)c1 [Example 57]
logP [1, 8]: 3.58

SMILES: C=CCn1nc(C(F)(F)C(F)(F)F)c(C(F)(F)F)c1C(=O)Nc1ccc(Cl)c(C(=O)NC2(C#N)CC2)c1 [Example 58]
logP [1, 8]: 3.65

SMILES: Cn1nc(C(F)(F)C(F)(F)F)c(C(F)(F)F)c1C(=O)Nc1cc(F)c(Br)c(C(=O)NC2(C#N)CC2)c1 [Example 59]
logP [1, 8]: 3.58

SMILES: CCC(=O)N(C(=O)c1c(C(F)(F)F)c(C(F)(F)C(F)(F)F)nn1C)c1ccc(Cl)c(C(=O)N(C(=O)CC)C2(C#N)CC2)c1 [Example 60]
logP [1, 8]: 4.68

SMILES: CCN(C(=O)c1cc(NC(=O)c2c(C(F)(F)F)c(C(F)(F)C(F)(F)F)nn2C)ccc1Cl)C1(C#N)CC1 [Example 61]
logP [1, 8]: 3.86

SMILES: CN(C(=O)c1cc(NC(=O)c2c(C(F)(F)F)c(C(F)(F)C(F)(F)F)nn2C)ccc1Cl)C1(C#N)CC1 [Example 62]
logP [1, 8]: 3.66

SMILES: CC(C)OC(=O)N(C(=O)c1c(C(F)(F)F)c(C(F)(F)C(F)(F)F)nn1C)c1ccc(Cl)c(C(=O)NC2(C#N)CC2)c1 [Example 63]
logP [1, 8]: 4.19

SMILES: N#CC1(NC(=O)c2cc(NC(=O)c3c(C(F)(F)F)c(C(F)(F)C(F)(F)F)nn3CC(F)(F)F)ccc2Cl)CC1 [Example 64]
logP [1, 8]: 3.60

SMILES: CCN(C(=O)c1c(C(F)(F)F)c(C(F)(F)C(F)(F)F)nn1C)c1ccc(Cl)c(C(=O)NC2CC2)c1 [Ik-136, reference compound]
inhibition at 20 g/ha (Myzus persicae; MYZUPE, 6 dat): 0% | inhibition at 20 g/ha (Tetranychus urticae; Tetranychus urticae, foliar, 144 h, TETRUR, 20 g/ha, 6 dat): 0% | inhibition at 0.8 ppm (Ctenocephalides felis; Ctenocephalides felis, po, 48 h, CTECFE, 0.8 ppm, 2 dat): 30% | % Activity dat (Boophilus microplus; 0.032 μg/animal): 0% | inhibition at 20 ppm ([4]; 20 ppm): 0% | inhibition at 0.8 ppm (Phaedon cochleariae [3]; 0.8 ppm): 0% | inhibition at 20 g/ha (Nilaparvata lugens; 168 h, 20 g/ha, 7 dat): 0%

SMILES: Cn1nc(C(F)(F)C(F)(F)F)c(C(F)(F)F)c1C(=O)Nc1ccc(F)c(C(=O)NC2CC2)c1 [Ik-155, reference compound]
inhibition at 100 g/ha (Myzus persicae; MYZUPE, 100 g/ha, 6 dat): 0% | inhibition at 100 g/ha (Tetranychus urticae; [7]): 0%

SMILES: Cn1nc(C(F)(F)C(F)(F)F)c(C(F)(F)F)c1C(=O)Nc1ccc(Br)c(C(=O)NC2CC2)c1 [Ik-175, reference compound]
inhibition at 100 g/ha (Myzus persicae; MYZUPE, 100 g/ha, 6 dat): 0% | inhibition at 4 ppm (Phaedon cochleariae [3]): 10% | inhibition at 500 g/ha (Nilaparvata lugens; 168 h, 7 dat): 0%

SMILES: CCC1CC1NC(=O)c1cc(NC(=O)c2c(C(F)(F)F)c(C(F)(F)C(F)(F)F)nn2C)ccc1Cl (stereo not drawn) [Ik-286, reference compound]
inhibition at 20 g/ha (Myzus persicae; MYZUPE, 6 dat): 0% | inhibition at 4 ppm (Ctenocephalides felis; Ctenocephalides felis, po, 48 h, CTECFE, 4 ppm, 2 dat): 0% | % Activity dat (Boophilus microplus; 0.16 μg/animal): 20% | inhibition at 100 ppm ([4]; 100 ppm): 40% | inhibition at 100 g/ha (Phaedon cochleariae [2]; Phaedon cochleariae, in Brassica rapa, foliar, 168 h, read-out: % Activity dat): 0%

chromatographic logP [1, 5]: 3.51
SMILES: COC(=O)c1c(SC)c(C(F)(F)C(F)(F)F)nn1C [methyl 1-methyl-4-(methylsulphanyl)-3-(pentafluoroethyl)-1H-pyrazole-5-carboxylate]

chromatographic logP [1, 5]: 3.18
SMILES: COC(=O)c1c([N+](=O)[O-])c(C(F)(F)C(F)(F)F)nn1C [methyl 1-methyl-4-nitro-3-(pentafluoroethyl)-1H-pyrazole-5-carboxylate]

chromatographic logP [1, 5]: 2.52
SMILES: COC(=O)c1c(N)c(C(F)(F)C(F)(F)F)nn1C [methyl 4-amino-1-methyl-3-(pentafluoroethyl)-1H-pyrazole-5-carboxylate]

From patent US9126945B2, “N-(3-carbamoylphenly)-1H-pyrazole-5-carboxamide derivatives and the use thereof for controlling animal pests” (BAYER INTELLECTUAL PROPERTY GMBH, priority 2011, dated 2015)
